Test results from patent US20260118350A1, “Fluorescent Probes for Peroxidase-Mediated Fluorescent Signal Amplification” (Seoul National University R&DB Foundation, priority 2024, published 2026).
“Also recorded” adds a separate entry of the source.

What was measured:
[1] = test system: TOM20-V5-APEX2; assay: Fixed-cell APEX labeling with TOM20-V5-APEX2 (confocal colocalization, line scan); format: cell-based, Human
Experimental: HeLa cells were transiently transfected with the APEX2-POI construct using PEI when cells reached approximately 70% confluency, following the protocol provided by the production company of PEI. After transfection and protein expression, the cells were fixed with 4% PFA in 1×DPBS for 15 minutes at room temperature. Subsequently, the cells were washed three times with DPBS. For the APEX reaction, JFT probes (100-500 μM) and H2O2 (0.5-1 mM) were used in 0.1 M PHEMS buffer for the specified time points. The APEX2-mediated reaction was quenched using a quencher solution (a mixture of sodium ascorbate, trolox, and sodium azide, see PMID: 23371551), and the cells were washed three times with DPBS buffer. For immunofluorescence imaging, the cells were permeabilized with −20° C. methanol for 5 minutes, followed by the standard immunofluorescence staining protocol. The detection of JFT fluorescence and immunofluorescence was performed using the GFP channel (excitation at 488 nm), RFP channel (excitation at 561 nm), and Cy5 channel (excitation at 647 nm) of a confocal light microscope 428 (FV3000, Olympus, Japan). […]

[2] = test system: organelle-targeted APEX2; assay: Fixed-cell FLEX staining of organelle-targeted APEX2-POIs; format: cell-based, Human; settings: fixed cells, PHEMS buffer 100 mM pH 7.4
Experimental: HeLa cells were transiently transfected with the APEX2-POI construct using PEI when cells reached approximately 70% confluency, following the protocol provided by the production company of PEI. After transfection and protein expression, the cells were fixed with 4% PFA in 1×DPBS for 15 minutes at room temperature. Subsequently, the cells were washed three times with DPBS. For the APEX reaction, JFT probes (100-500 μM) and H2O2 (0.5-1 mM) were used in 0.1 M PHEMS buffer for the specified time points. […] The detection of JFT fluorescence and immunofluorescence was performed using the GFP channel (excitation at 488 nm), RFP channel (excitation at 561 nm), and Cy5 channel (excitation at 647 nm) of a confocal light microscope 428 (FV3000, Olympus, Japan).
It was assessed whether JFT1 could react with APEX2 targeting various organelles under fixed conditions. […] Furthermore, JFT1 effectively generated a fluorescence signal with the APEX2-tagged POIs (APEX2-POIs) within specific compartments, including the mitochondrial matrix (Matrix-V5-APEX2), nucleus (V5-APEX2-NLS), and ER lumen (SEC61B-V5-APEX2) under fixed-cell conditions. […] These findings validate the wide applicability of JFT1 for APEX2-mediated fluorescence signal amplification (FLEX) in various subcellular organelles. […]

[3] = test system: Matrix-V5-APEX2; assay: Pre-embedding osmium treatment CLEM of JFT1-stained fixed Matrix-V5-APEX2 cells; format: cell-based; settings: 500 μM JFT1, 1 mM H2O2, 5 min; 0.4% OsO4, dehydration, resin embedding, 100 nm ultrathin section
Experimental: To obtain the SEM-based CLEM images via pre-embedding osmium treatment procedure (FIG. 2C, lower), cells were fixed with 2.5% glutaraldehyde (Electron Microscopy Sciences, cat. No. 16200) and 2% paraformaldehyde (Electron Microscopy Sciences, cat. No. 19210) in 0.1 M cacodylate solution (pH 7.0) for 30 min at 4° C. After washing, 20 mM glycine solution was used for quenching unreacted aldehyde. Next, JFT1 probe labeling with 500 μM JFT1 and 0.5-1 mM H2O2, was conducted for 5 min. Next, JFT1-labeled cells were post-fixed with 0.4% osmium tetroxide (OsO4) containing 1.5% potassium ferrocyanide in distilled water for 30 min at 4° C. and en bloc in 1% uranyl acetate (EMS, USA, cat. No. 22400) overnight and dehydrated with a graded ethanol series. The samples were then embedded with an EMBed-812 embedding kit (Electron Microscopy Sciences, USA, cat. No. 14120) and polymerized in an oven at 60° C. […]
Given the significance of osmium staining in EM sample preparation, the preservation of JF and JFT1 fluorescence after OsO4 treatment was tested. Remarkably, both JF- and JFT1-stained APEX2-expressing regions retained 70-80% of the original osmium-resistant fluorescence intensity even after osmium treatment (0.1% OsO4), facilitating their detection using confocal microscopy (FIG. 2D). […]

[4] = Photophysical properties in buffer (absorption, fluorescence); format: physicochemical
Experimental: These photophysical properties render the JF probes suitable for detection in the RFP channel (excitation at 561 nm, fluorescence emission filter: 565-620 nm). […] The absorbance spectra largely shifted from 515 (pH 7.4) to 416 nm when the probe was incubated at pH 6.0. […] This property enables the detection of JF probes in the GFP channel; however, the fluorescence intensity was negligible compared to that of GFP or GFP variant proteins (mEosEM etc.).

- fluorescence signal after pre-embedding steps [3]: well-preserved
- green fluorescence Imax ([4]; acidic pH (pH<7), excitation 405 or 450 nm): 520 nm
- absorbance spectra maximum ([4]; pH 6.0): 416 nm
- absorbance spectra maximum ([4]; pH 7.4): 515 nm
Compound: OCCn1cc(C[n+]2c(/C=C/c3ccc(O)cc3)sc3ccccc32)nn1 [JFT1, (E)-3-((1-(2-hydroxyethyl)-1H-1,2,3-triazol-4-yl)methyl)-2-(4-hydroxystyryl)benzo[d]thiazol-3-ium]
- labeling pattern by line scan analysis vs anti-V5 stain ([1]; fixed cells, TOM20-V5-APEX2, RFP signal): most optimal and restricted labeling pattern; also recorded: most well-matched pattern
- Pearson correlation coefficient (r) between probe-labeling region (RFP signal) and enzyme-expressed region (anti-V5 stain) ([1]; fixed sample, TOM20-V5-APEX2): 0.91
- fluorescence signal in GFP channel [2]: weak green fluorescence signal
- fluorescence signal in RFP channel [2]: strong red fluorescence signal
